Patent US5393742A, “Preparation for treating renal disease” (MECT Corporation, priority 1990, dated 1995)
Read-outs that look alike come from different tables or passages of the source.

Legend:
[1] = tested on: rat GEC; conditions: cited from earlier work
[2] = cited from earlier work
[3] = tested on: Puromycin aminonucleoside (PAN) induced nephritis; type: in vivo, Male Sprague-Dawley (SD) rats; conditions: for Effect on renal disease, nephrosis or nephrotic syndrome (in words): PAN-induced nephritis; for Kidney Moist Weight / Weight Gain Rate / Urinary Protein Content: 3 times a day; for Kidney Moist Weight / Weight Gain Rate: 14 days after PAN
Procedure: Effect on Puromycin aminonucleoside (PAN) induced nephritis, i.e. PAN induced nephrosis or nephrotic syndrome:
Male Sprague-Dawley (SD) rats weighing 160-180 g were used.
As the nephritis, i.e. nephrosis or nephrotic syndrome, causing substance, PAN (made by Sigma Co., Ltd.) was used. As the test compound, sodium N-acetylneuraminate (made by MECT Corporation) was used.
PAN was intraperitoneally administered in an amount of 80 mg per 1 kg of body weight to rats to cause nephritis, i.e. nephrosis or nephrotic syndrome. Then, the test compound (Groups I, II or III) or physiological saline solution (Group IV) was intraperitoneally administered 3 times a day (morning, noon and evening) for 14 consecutive days immediately after treatment with PAN as follows. As a positive control, methylprednisolone was subcutaneously administered to rats of Group V once a day (noon) for 14 consecutive days immediately after treatment with PAN. Moreover, 3, 6, 9 and 13 days after treatment with PAN, 5 ml water was loaded, and the urine was collected for 6 hours. Fourteen days after treatment with PAN, autopsies were made, the kidneys were extirpated and their moist weights were measured.
Group I: 0.1 mg Sodium N-acetylneuraminate per 1 kg of body weight was administered.
Group II: 0.5 mg Sodium N-acetylneuraminate per 1 kg of body weight was administered.
Group III: 1.0 mg Sodium N-acetylneuraminate per 1 kg of body weight was administered.
Group IV: 2.5 ml Physiological saline solution per 1 kg of body weight was administered.
Group V: 2 mg Methylprednisolone per 1 kg of body weight was administered.
Group VI: Normal rats (no drug was given).
Regarding the results of therapeutic effect for treating renal disease (nephrotic syndrome) of the given NANA compound per Example 1 above, it will be appreciated that the test compound sodium N-acetylneuraminate (Groups I, II and III) was dissolved in physiological saline and intraperitoneally administered, compared to intraperitoneal administration of physiological saline alone (Group IV) and subcutaneous administration of methylprednisolone (Group V).

[4] = tested on: cilium cells from the human airway and cilia of frog palatine mucosa; conditions: expectorant, by inhalation; cited from earlier work

CN(C)c1ncnc2c1ncn2[C@@H]1O[C@H](CO)[C@@H](N)[C@H]1O [PAN, puromycin aminonucleoside]
Effect on heparan sulfate proteoglycan (HSPG) [1]: reduces heparan sulfate proteoglycan (HSPG)

CC(=O)N[C@H]1[C@H]([C@H](O)[C@H](O)CO)OC(O)(C(=O)O)C[C@@H]1O (some centres unmarked) [N-acetylneuraminic acid]
anti vital action ([2]; article [1]): anti vital action | anti allergic action ([2]; article [4], guinea pigs): anti allergic action | anti inflammatory action ([2]; articles [2], [3]): anti inflammatory action | Effect on renal disease, nephrosis or nephrotic syndrome (in words) [3]: has an inhibitory effect on nephritis | Effect on ciliary motion in the airway [4]: directly promotes ciliary motion in the airway

CC(=O)N[C@H]1[C@H]([C@H](O)[C@H](O)CO)OC(O)(C(=O)[O-])C[C@@H]1O.[Na+] (some centres unmarked)
Kidney Moist Weight ([3]; 0.1 mg/kg i.p.): 0.47 ± 0.02 g/100 g | Weight Gain Rate ([3]; 0.1 mg/kg i.p.): 127.1 ± 2.0% | Kidney Moist Weight ([3]; 0.5 mg/kg i.p.): 0.44 ± 0.02 g/100 g | Weight Gain Rate ([3]; 0.5 mg/kg i.p.): 128.4 ± 1.8% | Kidney Moist Weight ([3]; 1.0 mg/kg i.p.): 0.42 ± 0.02 g/100 g | Weight Gain Rate ([3]; 1.0 mg/kg i.p.): 131.3 ± 1.9% | Urinary Protein Content ([3]; 3rd Day, 0.1 mg/kg i.p.): 14.1 ± 1.1 mg/24 hours | Urinary Protein Content ([3]; 3rd Day, 0.5 mg/kg i.p.): 11.3 ± 0.8 mg/24 hours | Urinary Protein Content ([3]; 3rd Day, 1.0 mg/kg i.p.): 5.1 ± 0.4 mg/24 hours | Urinary Protein Content ([3]; 6th Day, 0.1 mg/kg i.p.): 83.4 ± 8.6 mg/24 hours | Urinary Protein Content ([3]; 6th Day, 0.5 mg/kg i.p.): 49.1 ± 13.6 mg/24 hours | Urinary Protein Content ([3]; 6th Day, 1.0 mg/kg i.p.): 50.5 ± 10.7 mg/24 hours | Urinary Protein Content ([3]; 9th Day, 0.1 mg/kg i.p.): 99.6 ± 14.2 mg/24 hours | Urinary Protein Content ([3]; 9th Day, 0.5 mg/kg i.p.): 59.9 ± 14.7 mg/24 hours | Urinary Protein Content ([3]; 9th Day, 1.0 mg/kg i.p.): 51.2 ± 15.6 mg/24 hours | Urinary Protein Content ([3]; 13th Day, 0.1 mg/kg i.p.): 109.9 ± 12.9 mg/24 hours | Urinary Protein Content ([3]; 13th Day, 0.5 mg/kg i.p.): 94.5 ± 30.4 mg/24 hours | Urinary Protein Content ([3]; 13th Day, 1.0 mg/kg i.p.): 77.9 ± 17.9 mg/24 hours | Systemic side effect (in words) ([3]; PAN rats, weight gain as index of systemic effect): does not show such side effect | Effect on renal disease, nephrosis or nephrotic syndrome (in words) [3]: has a therapeutic effect on renal disease
